Assay results: paper PMC6021035, “Insights into biological activity of ureidoamides with primaquine and amino acid moieties” (Journal of Enzyme Inhibition and Medicinal Chemistry, 2018)
Converted amounts (≈) assume the structure as drawn. Where two headings read alike, the source gives them in different places.

Key:
[1] = system: Aspergillus niger ATCC 16404; assay: MIC determination (broth micro-dilution); assay type: cell-based; settings: ATCC16404
Method: (§1) Before analysis, compounds 5a–f were dissolved in 96% ethanol in a concentration of 2 mg/ml as stock solutions. Inoculums were prepared with fresh cultures of microbial strains, cultured on tryptic-soy agar or Sabouraud 2% (m/v) dextrose agar for 18 h (48–72 h for fungi) at 30 °C with physiological saline containing approximately […]. Inoculum density (0.5 McFarland units) was adjusted with a bio Mériex (France) densitometer. Minimum inhibitory concentration (MIC) was determined by the twofold micro-dilution method in Mu¨ller–Hinton broth for bacterial strains and RPMI 1640 + 2% m/v dextrose for fungi according to the EUCAST recommendations in a sterile 96-well flat-bottom plastic tissue culture plate. MIC was determined using a linear regression curve after incubation of compounds and reading the optical density at 570 nm using an iEMS microplate reader. […] All tests were performed in triplicate and expressed as the mean.

[2] = system: Candida parapsylosis ATCC 22019; assay: MIC determination (broth micro-dilution); assay type: cell-based; settings: ATCC22019
Method: as §1

[3] = system: Candida tropicalis ATCC 750; assay: MIC determination (broth micro-dilution); assay type: cell-based; settings: ATCC750
Method: as §1

[4] = system: Enterococcus hyrae ATCC 8043; assay: MIC determination (broth micro-dilution); assay type: cell-based; settings: ATCC8043
Method: as §1

[5] = system: Escherichia coli ATCC 10536; assay: MIC determination (broth micro-dilution); assay type: cell-based; settings: ATCC10536
Method: as §1

[6] = system: Staphylococcus aureus ATCC 25923; assay: MIC determination (broth micro-dilution); assay type: cell-based; settings: ATCC25923
Method: as §1

[7] = system: Candida albicans ATCC 10231; assay: Minimum biofilm eradication assay; assay type: cell-based; settings: ATCC10231, 48 h, read-out: MBEC
Method: (§2) We tested the susceptibility of different bacterial and yeast strains to compounds 5a–f by determining the minimum biofilm eradication concentration (MBEC). The test was performed in a sterile 96-well flat-bottom plastic tissue culture plate (TPP, Switzerland). Each well was filled with 100 µl of bacterial (10^7 CFUs/ml) or yeast (5 × 10^6 CFUs/ml) suspension. When the possibility of inhibition of yeast biofilm formation was tested, the wells were pre-treated with FBS (250 µl per well). Negative controls contained broth only. Positive controls were performed using standard antibacterial and antifungal drugs gentamycin and amphotericin B, respectively. The plates were covered and incubated aerobically for 24 h (bacteria) or 48 h (yeast) at 37 °C. Following the incubation period, each well was aspirated and washed three times with 250 µl of PBS and vigorously shaken in order to remove all non-adherent bacteria/yeast. The remaining attached cells were fixed with methanol (15 min) and the plates were left to dry overnight. The formed biofilm was stained with crystal violet (1%, 5 min). Excess stain was rinsed by placing the plate under running tap water and the plates were left to dry for 24 h. Adherent cells were resolubilized with acetic acid (33%, v/v). The optical density of each well was measured at 570 nm using a Multiscan plate reader. The MBEC value represents the lowest compound dilution at which microorganisms fail to grow.

[8] = system: Candida albicans ATCC 90028; assay: Minimum biofilm eradication assay; assay type: cell-based; settings: ATCC90028, 48 h, read-out: MBEC
Method: as §2

Candida kefyr ATCC 2512 = assay: Minimum biofilm eradication assay; assay type: cell-based; settings: Kluyveromyces marxianus, ATCC2512, 48 h, read-out: MBEC
Method: as §2

[9] = system: Candida krusei ATCC 14243; assay: Minimum biofilm eradication assay; assay type: cell-based; settings: Pichia kudriavzevii, ATCC14243, 48 h, read-out: MBEC
Method: as §2

[10] = system: Candida parapsylosis ATCC 22019; assay: Minimum biofilm eradication assay; assay type: cell-based
Method: as §2

[11] = system: Candida tropicalis ATCC 750; assay: Minimum biofilm eradication assay; assay type: cell-based; settings: ATCC750, 48 h, read-out: MBEC
Method: as §2

[12] = system: Enterococcus faecalis ATCC 29212; assay: Minimum biofilm eradication assay; assay type: cell-based
Method: as §2

[13] = system: Escherichia coli ATCC 10536; assay: Minimum biofilm eradication assay; assay type: cell-based
Method: as §2

[14] = system: Escherichia coli ATCC 8739; assay: Minimum biofilm eradication assay; assay type: cell-based
Method: as §2

[15] = system: Pseudomonas aeruginosa ATCC 27853; assay: Minimum biofilm eradication assay; assay type: cell-based
Method: as §2

[16] = system: Pseudomonas aeruginosa ATCC 9027; assay: Minimum biofilm eradication assay; assay type: cell-based
Method: as §2

[17] = system: Staphylococcus aureus ATCC 25213; assay: Minimum biofilm eradication assay; assay type: cell-based
Method: as §2

[18] = system: Staphylococcus aureus ATCC 6538; assay: Minimum biofilm eradication assay; assay type: cell-based
Method: as §2

[19] = Inhibition of linoleic acid peroxidation (LP), AAPH-initiated; design: tested at 100 µM; settings: 100 μΜ, 37 °C
Method: To initiate lipid peroxidation, the free radical AAPH was used[10]. The final solution in the UV cuvette consisted of 10 µl sodium linoleate solution (c = 16 mM) and 0.93 ml phosphate buffer pH 7.4 (c = 50 mM). Afterwards, 10 µl of the tested compound solution in DMSO (final concentration 0.1 mM) and 50 µl of AAPH solution (c = 40 mM) were added. The experiment was performed at 37 °C under air. Oxidation of linoleic acid sodium salt was monitored at 234 nm. The assay was repeated at least in triplicate and the standard deviation of absorbance was less than 10% of the mean. Trolox was used under the same experimental conditions as a reference compound.

[20] = In vitro haemolytic activity; assay type: cell-based; settings: male, 4% human erythrocytes, read-out: Haemolysis (%); for hemolysis at 1 h, 50 µg/ml: pH 7, 50 μg/ml; for hemolysis at 1 h, 100 µg/ml: pH 7, 100 μg/ml; for hemolysis at 1 h, 200 µg/ml: pH 7, 200 μg/ml
Method: Then, 4% (v/v) of fresh human erythrocyte solution (hErc) was prepared using a PBS pH 7.0 solution. A series of diluted compounds from 200 to 50 µg/ml were prepared in a total volume of 1 ml with hErc solution. […] Absorbance of the supernatant (200 µl) was recorded at 540 nm using an iEMS microplate reader. The 0.1% (v/v) solution of Triton X100 served as a positive control (as total lysis of hErc), and intact hErc served as a negative control. […] All tests were performed in triplicate and the results were expressed as haemolysis percentage (mean ± SD). Percentage of haemolysis was calculated using the following equation: haemolysis %=Asample-Anc/Apc-Anc×100 where Asample was absorbance of the tested compound, Anc was absorbance of the negative control (intact hErc) and Apc was absorbance of the positive control treated with 0.1% TritonX100. In statistical calculations, p values below 0.05 were considered significant throughout the test. For comparison of mean values, one-way ANOVA with Dunnet’s post-test was used.

[21] = 4% (v/v) fresh human erythrocyte suspension

COc1cc(NC(C)CCCNC(=O)NC(CC(C)C)C(=O)NC(c2ccccc2)c2ccccc2)c2ncccc2c1 (stereo not drawn) [Compound 5a, N-(diphenylmethyl)-2-[({4-[(6-methoxyquinolin-8-yl)amino]pentyl}carbamoyl)amino]-4-methylpentanamide]
MIC [1]: > 100 µg/mL
MIC [2]: > 100 µg/mL
MIC [3]: > 100 µg/mL
MIC [4]: > 100 µg/mL
MIC [5]: > 100 µg/mL
MIC [6]: 15 µg/mL (≈ 25.8 µM)
minimal effective concentration [7]: > 100 µg/mL
minimal effective concentration [8]: 25 µg/mL
minimal effective concentration (Candida kefyr ATCC 2512): > 100 µg/mL
minimal effective concentration [9]: > 100 µg/mL
MBEC [10]: >100 µg/mL
minimal effective concentration [11]: > 100 µg/mL
MBEC [12]: >100 µg/mL
MBEC [13]: 6.25 µg/mL
MBEC [14]: 6.25 µg/mL
MBEC [15]: 25 µg/mL
MBEC [16]: 60 µg/mL
MBEC [17]: 25 µg/mL
MBEC [18]: 12.5 µg/mL
LP inhibition (%) ± SD [19]: 15 ± 0.7%
hemolysis at 1 h, 50 µg/ml [20, 21]: 3.14 ± 0.04%
hemolysis at 1 h, 100 µg/ml [20, 21]: 4.03 ± 0.03%
hemolysis at 1 h, 200 µg/ml [20, 21]: 4.24 ± 0.07%

COc1cc(NC(C)CCCNC(=O)NC(C(=O)N(C)C(c2ccccc2)c2ccccc2)c2ccccc2)c2ncccc2c1 (stereo not drawn) [Compound 5b, N-(diphenylmethyl)-2-[({4-[(6-methoxyquinolin-8-yl)amino]pentyl}carbamoyl)amino]-N-methyl-2-phenylacetamide]
MIC [1]: > 100 µg/mL
MIC [2]: > 100 µg/mL
MIC [3]: > 100 µg/mL
MIC [4]: > 100 µg/mL
MIC [5]: > 100 µg/mL
MIC [6]: 65 µg/mL (≈ 106 µM)
minimal effective concentration [7]: 50 µg/mL
minimal effective concentration [8]: 50 µg/mL
minimal effective concentration (Candida kefyr ATCC 2512): > 100 µg/mL
minimal effective concentration [9]: > 100 µg/mL
MBEC [10]: >100 µg/mL
minimal effective concentration [11]: > 100 µg/mL
MBEC [12]: >100 µg/mL
MBEC [13]: 12.5 µg/mL
MBEC [14]: 12.5 µg/mL
MBEC [15]: >100 µg/mL
MBEC [16]: >100 µg/mL
MBEC [17]: >100 µg/mL
MBEC [18]: >100 µg/mL
LP inhibition (%) ± SD [19]: 92 ± 3.2%
hemolysis at 1 h, 50 µg/ml [20, 21]: 3.13 ± 0.05%
hemolysis at 1 h, 100 µg/ml [20, 21]: 3.94 ± 0.05%
hemolysis at 1 h, 200 µg/ml [20, 21]: 4.04 ± 0.08%

COc1cc(NC(C)CCCNC(=O)NC(C(=O)NC(c2ccccc2)c2ccc(Cl)cc2)c2ccccc2)c2ncccc2c1 (stereo not drawn) [Compound 5c, N-[(4-chlorophenyl)(phenyl)methyl]-2-[({4-[(6-methoxyquinolin-8-yl)amino]pentyl}carbamoyl)amino]-2-phenylacetamide]
MIC [1]: > 100 µg/mL
MIC [2]: > 100 µg/mL
MIC [3]: > 100 µg/mL
MIC [4]: > 100 µg/mL
MIC [5]: 60 µg/mL (≈ 94.3 µM)
MIC [6]: > 100 µg/mL
minimal effective concentration [7]: 50 µg/mL
minimal effective concentration [8]: 25 µg/mL
minimal effective concentration (Candida kefyr ATCC 2512): > 100 µg/mL
minimal effective concentration [9]: > 100 µg/mL
MBEC [10]: >100 µg/mL
minimal effective concentration [11]: > 100 µg/mL
MBEC [12]: >100 µg/mL
MBEC [13]: 6.25 µg/mL
MBEC [14]: 6.25 µg/mL
MBEC [15]: 25 µg/mL
MBEC [16]: 50 µg/mL
MBEC [17]: >100 µg/mL
MBEC [18]: >100 µg/mL
LP inhibition (%) ± SD [19]: 99 ± 2.8%
hemolysis at 1 h, 50 µg/ml [20, 21]: 3.06 ± 0.05%
hemolysis at 1 h, 100 µg/ml [20, 21]: 4.26 ± 0.07%
hemolysis at 1 h, 200 µg/ml [20, 21]: 4.89 ± 0.13%

COc1cc(NC(C)CCCNC(=O)NC(C(=O)NC(c2ccccc2)c2ccccc2)c2ccc(Cl)cc2)c2ncccc2c1 (stereo not drawn) [Compound 5d, 2–(4-chlorophenyl)-N-(diphenylmethyl)-2-[({4-[(6-methoxyquinolin-8-yl)amino]pentyl}carbamoyl)amino]acetamide]
MIC [1]: > 100 µg/mL
MIC [2]: > 100 µg/mL
MIC [3]: > 100 µg/mL
MIC [4]: > 100 µg/mL
MIC [5]: 60 µg/mL (≈ 94.3 µM)
MIC [6]: 25 µg/mL (≈ 39.3 µM)
minimal effective concentration [7]: 50 µg/mL
minimal effective concentration [8]: 25 µg/mL
minimal effective concentration (Candida kefyr ATCC 2512): 25 µg/mL
minimal effective concentration [9]: > 100 µg/mL
MBEC [10]: >100 µg/mL
minimal effective concentration [11]: > 100 µg/mL
MBEC [12]: >100 µg/mL
MBEC [13]: 25 µg/mL
MBEC [14]: 25 µg/mL
MBEC [15]: 50 µg/mL
MBEC [16]: 50 µg/mL
MBEC [17]: 25 µg/mL
MBEC [18]: 25 µg/mL
LP inhibition (%) ± SD [19]: 90 ± 4.5%
hemolysis at 1 h, 50 µg/ml [20, 21]: 2.56 ± 0.05%
hemolysis at 1 h, 100 µg/ml [20, 21]: 2.94 ± 0.04%
hemolysis at 1 h, 200 µg/ml [20, 21]: 3.07 ± 0.05%

COc1cc(NC(C)CCCN)c2ncccc2c1 (stereo not drawn) [PQ, 8-[(4-amino-1-methylbutyl)amino]-6-methoxyquinoline, reference compound]
MIC [1]: > 100 µg/mL
MIC [2]: 25 µg/mL (≈ 96.4 µM)
MIC [3]: > 100 µg/mL
MIC [4]: > 100 µg/mL
MIC [5]: 65 µg/mL (≈ 251 µM)
MIC [6]: 45 µg/mL (≈ 174 µM)
minimal effective concentration [7]: > 100 µg/mL
minimal effective concentration [8]: > 100 µg/mL
minimal effective concentration (Candida kefyr ATCC 2512): 50 µg/mL
minimal effective concentration [9]: > 100 µg/mL
MBEC [10]: 50 µg/mL
minimal effective concentration [11]: > 100 µg/mL
MBEC [12]: >100 µg/mL
MBEC [13]: 25 µg/mL
MBEC [14]: 25 µg/mL
MBEC [15]: 50 µg/mL
MBEC [16]: 70 µg/mL
MBEC [17]: >100 µg/mL
MBEC [18]: 50 µg/mL
hemolysis at 1 h, 50 µg/ml [20]: 2.08 ± 0.05%
hemolysis at 1 h, 100 µg/ml [20]: 2.53 ± 0.04%
hemolysis at 1 h, 200 µg/ml [20]: 3.12 ± 0.07%
